Laboratory results reported in ChEMBL document CHEMBL2440076, “New triarylpyrazoles as broad-spectrum anticancer agents: design, synthesis, and biological evaluation” (Eur J Med Chem, 2013).

Tests used:
Assay type in all cases: functional
Malme-3M = test: Growth inhibition of human MALME-3M cells assessed as cell growth at 10^-7 M after 48 hrs by sulforhodamine B assay; conditions: read-out: Activity
U-251 [1] = test: Growth inhibition of human U251 cells assessed as cell growth at 10^-7 M after 48 hrs by sulforhodamine B assay; conditions: U-251, 48 h, read-out: Activity
HOP-92 [2] = test: Growth inhibition of human HOP92 cells assessed as cell growth at 10^-7 M after 48 hrs by sulforhodamine B assay; conditions: HOP-92, 48 h, read-out: Activity
MDA-MB-468 [3] = test: Growth inhibition of human MDA-MB-468 cells assessed as cell growth at 10^-8 M after 48 hrs by sulforhodamine B assay; conditions: MDA-MB-468, 48 h, read-out: Activity
MDA-MB-231 [4] = test: Growth inhibition of human MDA-MB-231 cells assessed as cell growth at 10^-4 M after 48 hrs by sulforhodamine B assay; conditions: MDA-MB-231, 48 h, read-out: Activity
OVCAR-4 [5] = test: Growth inhibition of human OVCAR4 cells assessed as cell growth […] after 48 hrs by sulforhodamine B assay; conditions: OVCAR-4, 48 h, read-out: Activity
OVCAR-5 [6] = test: Growth inhibition of human OVCAR5 cells assessed as cell growth at 10^-4 M after 48 hrs by sulforhodamine B assay; conditions: OVCAR-5, 48 h, read-out: Activity
IGROV-1 = test: Growth inhibition of human IGROV1 cells assessed as cell growth at 10^-4 M after 48 hrs by sulforhodamine B assay; conditions: IGROV-1, 48 h, read-out: Activity
SK-MEL-28 [7] = test: Growth inhibition of human SK-MEL-28 cells assessed as cell growth at 10^-4 M after 48 hrs by sulforhodamine B assay; conditions: SK-MEL-28, 48 h, read-out: Activity
U-251 [8] = test: Growth inhibition of human U251 cells assessed as cell growth at 10^-4 M after 48 hrs by sulforhodamine B assay; conditions: U-251, 48 h, read-out: Activity
SF-268 [9] = test: Growth inhibition of human SF268 cells assessed as cell growth at 10^-4 M after 48 hrs by sulforhodamine B assay; conditions: SF-268, 48 h, read-out: Activity
HCT-15 = test: Growth inhibition of human HCT15 cells assessed as cell growth at 10^-4 M after 48 hrs by sulforhodamine B assay; conditions: HCT-15, 48 h, read-out: Activity
DU-145 = test: Growth inhibition of human DU145 cells assessed as cell growth at 10^-8 M after 48 hrs by sulforhodamine B assay; conditions: DU-145, 48 h, read-out: Activity
A498 = test: Growth inhibition of human A498 cells assessed as cell growth at 10^-8 M after 48 hrs by sulforhodamine B assay; conditions: A498, 48 h, read-out: Activity
786-0 [10] = test: Growth inhibition of human 786-0 cells assessed as cell growth at 10^-8 M after 48 hrs by sulforhodamine B assay; conditions: 786-0, 48 h, read-out: Activity
SK-OV-3 [11] = test: Growth inhibition of human SKOV3 cells assessed as cell growth at 10^-8 M after 48 hrs by sulforhodamine B assay; conditions: SK-OV-3, 48 h, read-out: Activity
OVCAR-4 [12] = test: Growth inhibition of human OVCAR4 cells assessed as cell growth at 10^-8 M after 48 hrs by sulforhodamine B assay; conditions: OVCAR-4, 48 h, read-out: Activity
SK-MEL-5 = test: Growth inhibition of human SK-MEL-5 cells assessed as cell growth at 10^-8 M after 48 hrs by sulforhodamine B assay; conditions: SK-MEL-5, 48 h, read-out: Activity
SNB-19 = test: Growth inhibition of human SNB19 cells assessed as cell growth at 10^-8 M after 48 hrs by sulforhodamine B assay; conditions: SNB-19, 48 h, read-out: Activity
SW-620 = test: Growth inhibition of human SW620 cells assessed as cell growth at 10^-8 M after 48 hrs by sulforhodamine B assay; conditions: SW-620, 48 h, read-out: Activity
KM12 = test: Growth inhibition of human KM12 cells assessed as cell growth at 10^-8 M after 48 hrs by sulforhodamine B assay; conditions: KM12, 48 h, read-out: Activity
MDA-MB-468 [13] = test: Growth inhibition of human MDA-MB-468 cells assessed as cell growth at 10^-5 M after 48 hrs by sulforhodamine B assay; conditions: MDA-MB-468, 48 h, read-out: Activity
OVCAR-5 [14] = test: Growth inhibition of human OVCAR5 cells assessed as cell growth at 10^-5 M after 48 hrs by sulforhodamine B assay; conditions: OVCAR-5, 48 h, read-out: Activity
SK-MEL-28 [15] = test: Growth inhibition of human SK-MEL-28 cells assessed as cell growth at 10^-5 M after 48 hrs by sulforhodamine B assay; conditions: SK-MEL-28, 48 h, read-out: Activity
M14 = test: Growth inhibition of human M14 cells assessed as cell growth at 10^-5 M after 48 hrs by sulforhodamine B assay; conditions: M14, 48 h, read-out: Activity
[16] = Growth inhibition of human HCC2998 cells assessed as cell growth at 10^-5 M after 48 hrs by sulforhodamine B assay; conditions: HCC 2998, 48 h, read-out: Activity
HOP-92 [17] = test: Growth inhibition of human HOP92 cells assessed as cell growth at 10^-5 M after 48 hrs by sulforhodamine B assay; conditions: HOP-92, 48 h, read-out: Activity
A549 = test: Growth inhibition of human A549/ATCC cells assessed as cell growth at 10^-5 M after 48 hrs by sulforhodamine B assay; conditions: A549, 48 h, read-out: Activity
MDA-MB-231 [18] = test: Growth inhibition of human MDA-MB-231 cells assessed as cell growth at 10^-6 M after 48 hrs by sulforhodamine B assay; conditions: MDA-MB-231, 48 h, read-out: Activity
786-0 [19] = test: Growth inhibition of human 786-0 cells assessed as cell growth at 10^-6 M after 48 hrs by sulforhodamine B assay; conditions: 786-0, 48 h, read-out: Activity
SK-OV-3 [20] = test: Growth inhibition of human SKOV3 cells assessed as cell growth at 10^-6 M after 48 hrs by sulforhodamine B assay; conditions: SK-OV-3, 48 h, read-out: Activity
SNB-75 = test: Growth inhibition of human SNB75 cells assessed as cell growth at 10^-6 M after 48 hrs by sulforhodamine B assay; conditions: SNB-75, 48 h, read-out: Activity
SF-268 [21] = test: Growth inhibition of human SF268 cells assessed as cell growth at 10^-6 M after 48 hrs by sulforhodamine B assay; conditions: SF-268, 48 h, read-out: Activity
K562 = test: Growth inhibition of human K562 cells assessed as cell growth at 10^-6 M after 48 hrs by sulforhodamine B assay; conditions: K562, 48 h, read-out: Activity
MDA-MB-231 [22] = test: Growth inhibition of human MDA-MB-231 cells assessed as cell growth at 10^-7 M after 48 hrs by sulforhodamine B assay; conditions: MDA-MB-231, 48 h, read-out: Activity
PC-3 = test: Growth inhibition of human PC3 cells assessed as cell growth at 10^-7 M after 48 hrs by sulforhodamine B assay; conditions: PC-3, 48 h, read-out: Activity
[23] = Growth inhibition of human NCI-ADR-RES cells assessed as cell growth at 10^-7 M after 48 hrs by sulforhodamine B assay; conditions: read-out: Activity
OVCAR-3 = test: Growth inhibition of human OVCAR3 cells assessed as cell growth at 10^-7 M after 48 hrs by sulforhodamine B assay; conditions: OVCAR-3, 48 h, read-out: Activity

Row | Compound | growth at 0.1 µM (Malme-3M) | growth at 0.1 µM (U-251 [1]) | growth at 0.1 µM (HOP-92 [2]) | growth at 0.01 µM (MDA-MB-468 [3]) | growth at 100 µM (MDA-MB-231 [4]) | growth at 100 µM (OVCAR-4 [5]) | growth at 100 µM (OVCAR-5 [6]) | growth at 100 µM (IGROV-1) | growth at 100 µM (SK-MEL-28 [7]) | growth at 100 µM (U-251 [8]) | growth at 100 µM (SF-268 [9]) | growth at 100 µM (HCT-15) | growth at 0.01 µM (DU-145) | growth at 0.01 µM (A498) | growth at 0.01 µM (786-0 [10]) | growth at 0.01 µM (SK-OV-3 [11]) | growth at 0.01 µM (OVCAR-4 [12]) | growth at 0.01 µM (SK-MEL-5) | growth at 0.01 µM (SNB-19) | growth at 0.01 µM (SW-620) | other results
1 | COc1cc(-c2nn(-c3cccc(NC(=O)c4ccc(N5CCOCC5)c(C(F)(F)F)c4)c3)cc2-c2ccncc2)ccc1Cl | 52% | 88% | 56% | 95% | -30% | 18% | 2% | -15% | 13% | -59% | 10% | 2% | 108% | 90% | 98% | 103% | 97% | 95% | 92% | 99% | growth at 0.01 µM (KM12): 108%; growth at 10 µM (MDA-MB-468 [13]): -64%; growth at 10 µM (OVCAR-5 [14]): 16%; growth at 10 µM (SK-MEL-28 [15]): 14%; growth at 10 µM (M14): 8%; growth at 10 µM [16]: -22%; growth at 10 µM (HOP-92 [17]): -26%; growth at 10 µM (A549): 7%; growth at 1 µM (MDA-MB-231 [18]): 18%; growth at 1 µM (786-0 [19]): 45%; growth at 1 µM (SK-OV-3 [20]): 24%; growth at 1 µM (SNB-75): -2%; growth at 1 µM (SF-268 [21]): 41%; growth at 1 µM (K562): 11%; growth at 0.1 µM (MDA-MB-231 [22]): 79%; growth at 0.1 µM (PC-3): 73%; growth at 0.1 µM [23]: 72%; growth at 0.1 µM (OVCAR-3): 76%
2 | COc1cc(-c2nn(-c3cccc(NC(=O)c4ccccc4)c3)cc2-c2ccncc2)ccc1Cl | 82% | 98% | 86% | 90% | -42% | 30% | 8% | 17% | 26% | -18% | 14% | 12% | 104% | 92% | 93% | 97% | 93% | 97% | 99% | 96% | growth at 0.01 µM (KM12): 101%; growth at 10 µM (MDA-MB-468 [13]): -15%; growth at 10 µM (OVCAR-5 [14]): 59%; growth at 10 µM (SK-MEL-28 [15]): 43%; growth at 10 µM (M14): 5%; growth at 10 µM [16]: 7%; growth at 10 µM (HOP-92 [17]): -8%; growth at 10 µM (A549): 17%; growth at 1 µM (MDA-MB-231 [18]): 53%; growth at 1 µM (786-0 [19]): 56%; growth at 1 µM (SK-OV-3 [20]): 51%; growth at 1 µM (SNB-75): 39%; growth at 1 µM (SF-268 [21]): 47%; growth at 1 µM (K562): 21%; growth at 0.1 µM (MDA-MB-231 [22]): 101%; growth at 0.1 µM (PC-3): 86%; growth at 0.1 µM [23]: 92%; growth at 0.1 µM (OVCAR-3): 101%
